# Test results as given in publication PMC5642494 (Oncotarget, 2017).
# Where two headings read alike, the source gives them in different places.
# Experiments:
# EFM-19 cells = assay: Ki-67 protein expression, EFM-19; type: cell-based; conditions: Homo sapiens, 2 DT, read-out: EC50 Ki-67 levels
# Method: Relative IC50/EC50 values were determined by curve fitting to a four parameter logistic equation: Y = bottom + ((top-bottom)/ (1+exp(HillSlope*(X – LnIC50)), where X is the natural log of dose/concentration, Y is response, decreasing as X increases, top and bottom are plateaus in the same units as Y, lnIC50 is the natural log of potency, in the same log units as X, and HillSlope measures the steepness of the curve. Data were plotted using GraphPad Prism.
# After 72 hours, cells were stained with an anti-FOXM1 antibody and a secondary goat anti-rabbit IgG, Alexa Fluor® 488 conjugate; nuclei were stained with propidium iodide (PI). Alternatively, for assessment of Ki-67 levels, cells were treated for 2 DT and then stained with Ki-67 and a secondary goat anti-rabbit IgG, Alexa Fluor® 488 conjugate. Plates were read in an Acumen Explorer Ex3 (TTP Labtech) using Cellista software and the percentages of FOXM1 positive and Ki-67 positive cells were calculated over the background signal. Data were normalized in Excel using the mean value obtained from treatment with 2 µM BEZ235 as the minimum and the mean value obtained from treatment with 0.2% DMSO as the maximum.
# MCF7 cells [1] = assay: Annexin V/PI flow cytometry, MCF7; type: cell-based, human; conditions: 3 DT (untreated 11.1%)
# Method: Annexin V/PI staining was performed following the vendor’s specifications in MCF7 and MDA-MB-361 cells. […] Raw data were analyzed with FlowJo X software. Events were gated for debris exclusion and singlets selection. A minimum of 10,000 cells were analyzed per sample.
# MCF7 cells [2] = assay: TCA metabolite profiling by LC/MS in MCF7; type: cell-based, human; conditions: for EC50: Homo sapiens, MCF7, MCF7, single experiment, read-out: EC50 α-ketoglutarate; for Aspartate level / Citrate level / Fumarate level / Glutamate level / Isocitrate level / Lactate level / Malate level / Pyruvate level / Succinate level / α-ketoglutarate level: MCF7, 3 DT, normalized to DMSO = 1, n = 3
# Method: MCF7 cells were plated at 20,000 cells/well in 24-well plate; approximately 14–24 hours after seeding, cells were treated with DMSO (vehicle) or the indicated compounds diluted in DMSO. Cells were incubated for three different incubation times: 48 hours (1 DT), 96 hours (2 DT), and […] (3 DT). After treatment, cells were harvested and the collected pellet was stored at -80°C. For additional details see Supplemental Methods and Supplementary Table 1. […]
# SA-β-gal Cell samples were lysed after treatment with expression was determined using the Senescence Cells 100 µL lysis buffer and transferred to a 96-well plate.
# Histochemical Staining Kit (Sigma, CS0030) following 30 µL of each sample were transferred into deep well the vendor ’s manual. Images were taken at 100x by bright plates using TECAN-EVO Workstation. Samples were field microscopy (Leica DMiL). treated for derivatization of the metabolites of interest and internal standards. For this, 50 µL of derivatization reagent
# Proliferation studies after washouts (EdU Click- and 80 µL of internal standard (IS, SupplementaryTable iT®) 1), were added with multidrop, plates were vortexed for 5 mins and let sit for one hour at 4 °C. The IS used were the Cells were plated onto poly-D-lysine D or 13C-labeled commercial analogues of nine of the ten coated 96-well plates at a density of 2,000–6,000 metabolites, prepared at 25 µM in water (Supplementary viable cells per well, and treated with abemaciblib or Table 1). The derivatization reagents (from Sigma), palbociclib at 1µM following the cell treatment and 3-nitrophenylhydrazine (0.5 M) and the coupling buffer washout schedule shown on Supplementary Figure 1A. [N-(3-Dimethylaminopropyl)-N′-ethylcarbodiimide An EdU (5-ethynyl-2’-deoxyuridine) pulse was added hydrochloride (1M) were freshly prepared in 75:24:1 one hour prior to the end of study at a final concentration methanol/water/pyridine. of 10 µM as described in the kit protocol (Click-iT After derivatization, a liquid-liquid extraction step High Content Imaging EdU Incorporation kit (Life with ethyl acetate was carried out in two steps; the upper Technologies cat# C10351)). The cells were then fixed phase was transferred to a new deep-well plate with in the presence of 3.7% formaldehyde for 20 minutes at TECAN-EVO, and the joint extract was evaporated to 37°C, and permeabilized with 0.1% Triton-X 100 in PBS dryness with nitrogen, and reconstituted with 50% H2O/ for 10 minutes at 25°C, then washed twice with PBS. MetOH. A set of calibrants at 12 levels of the analytes They were blocked using 1% bovine serum albumin was derivatized in parallel following the same protocol.
# (BSA) (Invitrogen #15260-037) for 1 hour at 25°C. EdU Samples were analyzed by LC─MS/MS under the detection was performed using the Click-iT High Content conditions described below. […]
# Mass Spectrometer (qQq) with JetStream Electrospray
# Objects were identified using an algorithm to Ionization (ESI) Source, coupled to a LC1290 Infinity detect nuclear staining with Hoechst 33342 dye. The High-Performance Liquid Chromatograph. The software relative levels and sub-cellular localization of EdU were for data collection and treatment was Agilent Masshunter determined through the respective intensities and locations Workstation. Mobile phases for chromatography were: of Alexa-488 fluorescence. mobile phase A: formic acid (5 mM) and ammonium formate (10 mM) in water; mobile phase B: acetonitrile.
# Assessment of hypermethylation of histone H3 at 50% Acetonitrile/water were used to clean the lysine 9 (H3K9me3) injection needle after each injection. A reverse-phase chromatographic column (XBridge BEH C18 3.5 µm, MCF7 and EFM-19 cells were plated in 96-well 2.1 × 50 mm) from […] plates and treated at 20 µM (or a 3-fold dilution series) was used as stationary phase. Chromatographic separation […]
# Tecan Genesis RSP100 liquid-handling system was used mobile phase A in 6 min; then to 5% in 0.1 min, maintained […]
structure (smiles),measurement,setting,value
"CCN1CCN(Cc2ccc(Nc3ncc(F)c(-c4cc(F)c5nc(C)n(C(C)C)c5c4)n3)nc2)CC1 [abemaciclib, Abemaciclib]",EC50,EFM-19 cells,16.7 nM
same,cells positive for annexin V,MCF7 cells [1]; 0.5 µM,41.4%
same,cells positive for annexin V,MCF7 cells [1]; 2 µM,66.7%
same,EC50,MCF7 cells [2]; 1 DT,370 nM
same,EC50,MCF7 cells [2]; 2 DT,280 nM
same,EC50,MCF7 cells [2]; 3DT,730 nM
same,Aspartate level,MCF7 cells [2]; 0.5 µM,0.72 ± 0.10
same,Citrate level,MCF7 cells [2]; 0.5 µM,1.20 ± 0.27
same,Fumarate level,MCF7 cells [2]; 0.5 µM,0.12 ± 0.02
same,Glutamate level,MCF7 cells [2]; 0.5 µM,0.71 ± 0.06
same,Isocitrate level,MCF7 cells [2]; 0.5 µM,1.90 ± 0.65
same,Lactate level,MCF7 cells [2]; 0.5 µM,0.30 ± 0.02
same,Malate level,MCF7 cells [2]; 0.5 µM,0.22 ± 0.01
same,Pyruvate level,MCF7 cells [2]; 0.5 µM,1.22 ± 0.64
same,Succinate level,MCF7 cells [2]; 0.5 µM,0.35 ± 0.08
same,α-ketoglutarate level,MCF7 cells [2]; 0.5 µM,0.13 ± 0.03
same,Aspartate level,MCF7 cells [2]; 2 µM,0.47 ± 0.13
same,Citrate level,MCF7 cells [2]; 2 µM,1.07 ± 0.3
same,Fumarate level,MCF7 cells [2]; 2 µM,0.12 ± 0.07
same,Glutamate level,MCF7 cells [2]; 2 µM,1.10 ± 0.38
same,Isocitrate level,MCF7 cells [2]; 2 µM,0.81 ± 0.52
same,Lactate level,MCF7 cells [2]; 2 µM,0.38 ± 0.15
same,Malate level,MCF7 cells [2]; 2 µM,0.09 ± 0.03
same,Pyruvate level,MCF7 cells [2]; 2 µM,3.59 ± 1.65
same,Succinate level,MCF7 cells [2]; 2 µM,0.65 ± 0.23
same,α-ketoglutarate level,MCF7 cells [2]; 2 µM,0.08 ± 0.02
